In one data set the target is T1, SMYD3-GST tag protein (Homo sapiens, UniProt Q9H7B4).
T1 construct: purchased BPS Bioscience
T1 sequence (Q9H7B4 1-428): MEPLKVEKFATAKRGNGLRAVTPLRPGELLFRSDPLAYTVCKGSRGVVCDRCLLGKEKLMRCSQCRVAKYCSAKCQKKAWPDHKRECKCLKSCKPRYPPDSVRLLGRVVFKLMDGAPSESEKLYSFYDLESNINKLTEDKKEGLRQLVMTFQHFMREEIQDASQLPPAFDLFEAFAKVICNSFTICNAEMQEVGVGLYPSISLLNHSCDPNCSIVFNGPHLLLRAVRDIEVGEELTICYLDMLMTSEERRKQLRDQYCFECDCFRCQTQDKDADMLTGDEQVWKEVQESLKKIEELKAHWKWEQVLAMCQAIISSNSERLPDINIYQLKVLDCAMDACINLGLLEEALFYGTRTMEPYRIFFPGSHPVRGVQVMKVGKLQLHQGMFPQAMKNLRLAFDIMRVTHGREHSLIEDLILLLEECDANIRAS
Put plainly: Biolayer interferometry (BLI) binding assay. The conditions noted are these: steady-state analysis, read-out: equilibrium dissociation constant (K D). On the procedure:
Next, to test the binding affinity of novel small molecules to SMYD3, BLI analyses were performed to determine the binding affinity of the two series of novel small molecules targeting SMYD3. SMYD3‐glutathione S‐transferase (GST)‐tagged protein was immobilized onto GST biosensors and used to determine the binding affinity of all respective small molecules and labeled probes. The binding and dissociation curves were generated in real time by applying the SMYD3‐GST label proteins onto the biosensor surfaces, followed by monitoring small molecules interaction across several concentrations. […] SMI1 has been renamed ZYZ384 and further tested for anticancer activities using both in vitro and in vivo models.
The SMYD3‐GST tag protein (BPS Bioscience) was immobilized onto a GST biosensor (Fortebio). ZYZ384 was tested across the concentrations range of 6.25–200 µM. After baseline setup using Phosphate buffer saline (PBS), the biosensor tips were immersed in wells containing ZYZ384 continuous diluent for 180 s to combine, followed by a 180‐s dissociation step. They calculated K D value with a 1:1 model in data analysis software 9.0 (Fortebio).
(In general: In BLI a coated tip is dipped into the sample, and binding shifts an interference pattern.)

The target in data set [1] is T2, SMYD3 (Homo sapiens, UniProt Q9H7B4).
T2 construct: purchased BPS Bioscience
T2 sequence (Q9H7B4 1-428): T1 sequence (Q9H7B4 1-428)
The data set can be described thus: SMYD3 homogeneous assay kit (AlphaELISA). In kind it is biochemical. To be noted: different concentrations, 3 h incubation. On the procedure: The homogeneous assay kit was used to evaluate ZYZ384 inhibition activity on SMYD3. As we know, SMYD3 can catalyze the di‐ and tri‐methylation status of lysine4 of histone H3. This protein is also reported to drive the methylation of a lysine residue present in the protein […] (MAP3K2). Therefore, a series of different concentrations of ZYZ384 were incubated with SMYD3, and the activity was determined using the kit.
The commercial SMYD3 homogenous assay kit is designed to detect SMYD3 activity for screening and analytical applications. The SMYD3 homogenous assay kit is available in a convenient AlphaELISA format with GST‐labeled SMYD3 substrate, primary antibody, methylation detection buffer, and purification of SMYD3 for 384 enzyme reactions. The key to the SMYD3 homogenous assay is a particular antibody that recognizes methylated substrates. Using the kit, methyltransferase can be detected in three simple steps on a microtitration plate. First, samples containing the SMYD3 enzyme and ZYZ384 in different dosages were incubated in substrates for 3 h. Next, the receptor bead and primary antibody are added, the donor bead is added, and the Alpha counts are recorded.

The next data set has as its system A549 cells. Put plainly: MTT cell viability. The conditions noted are these: Homo sapiens, 24 h. It is filed as cell-based. The procedure:
(§1) The cytotoxicity of ZYZ384 was determined across several different cancer cell lines. 3‐(4,5‐Dimethylthiazol‐2‐yl)‐2,5‐diphenyltetrazolium bromide (MTT) assay was used to assess cell viability. […] The cancer cell lines tested include human liver carcinoma cell HepG2, adenocarcinoma human alveolar basal epithelial cell A549, human colon carcinoma cell HTC116, human breast adenocarcinoma cell MDA‐MB‐231, and human pancreatic adenocarcinoma cell Miapaca2. […] In addition, ZYZ384 had low toxicity when tested in normal liver cells (LO2; Figure 3H).
(§2) Human HepG2, A549, HCT116, MDA‐MB‐231, and Miapaca2 cells were purchased from American Type Culture Collection (ATCC) and cultured in DMEM medium supplemented with 1% penicillin/streptomycin and 10% FBS at 37°C under 5% CO2 atmosphere and 95% air. Trypsin EDTA was used for cell passage.
(§3) Cell viability was assessed in several cancer cell lines and determined using the MTT assay in a 96‐well plate format. In brief, cells from […] medium (1 × 10^4/well) were inoculated in 96‐well plates and treated with ZYZ384. After 24 h of treatment, cell viability was determined by adding 1 mg/mL MTT‐containing medium for 4 h, followed by […] Dimethyl sulfoxide (DMSO) to dissolve formazan. The absorbance at 570 nm was recorded using a microplate ultraviolet/visible (UV/VIS) spectrophotometer (Tecan).

A further data set concerns HCT116 cells. The data set can be described thus: MTT cell viability. It is filed as cell-based. To be noted: Homo sapiens, HCT-116, 24 h. On the procedure: as §1, §2, §3
For a further data set, the system named is HepG2 cells. Put plainly: MTT cell viability. In kind it is cell-based. The conditions noted are these: Homo sapiens, 24 h. The procedure: as §1, §2, §3
A further data set concerns MDA-MB-231 cells. The data set can be described thus: MTT cell viability. In kind it is cell-based. To be noted: Homo sapiens; MDA-MB-231, MTT, 24 h. On the procedure: as §1, §2, §3
The test system of the next data set is Miapaca2 cells. Put plainly: MTT cell viability. It is filed as cell-based. To be noted: Homo sapiens, MIA PaCa-2, 24 h. On the procedure:
as §1, §2, §3

A further data set deals with Huh7 cells. Put plainly: MTT cell viability. It is filed as cell-based. To be noted: Homo sapiens, Huh-7, 24 h.
The next data set deals with LO2 cells. Put plainly: MTT cell viability, normal liver cells. It is filed as cell-based, human. On the procedure:
as §1, §3

The test system of data set [2] is SMYD3. Put plainly: SMYD3 overexpression by transfection in LO2 cells and ZYZ384 treatment. In kind it is cell-based, human. To be noted: LO2 transfected with SMYD3 OE plasmid, 24 h treatment. On the procedure:
as §1
SMYD3 overexpression (SMYD3 OE) plasmid (Sino Biological) was mixed with lipofectamine 2000 for plasmid transfection. After transfection for 6 h, cells were exposed to the indicated ZYZ384 treatments for another 24 h.

The subject of the next data set is C57BL/6 mice. Put plainly: Short-term toxicity study of C57BL/6 mice. The conditions noted are these: oral. In kind it is in vivo. The procedure:
The toxicity of ZYZ384 (Figure 4A) was determined using C57BL/6 mice in pilot studies to assess the safety and the maximum‐tolerable dose (MTD) determined (as shown in Figure 4B). No toxicity was reported in C57BL/6 mice orally administrated with 2 g/kg of ZYZ384 one time, and a survival rate of 100% was reached after 2 weeks of treatment. No abnormalities in food and water consumption are reported during this time, nor any unusual spontaneous activities; a reported […] for ZYZ384 >2 g/kg is noted for the current work.
C57BL/6 mice were randomly divided into two groups (n = 10) to determine the short‐term toxicity of ZYZ384. Mice were given the maximum dose of 2 g/kg orally administered ZYZ384 once, while the control group was treated with the same volume of sterilized water. The health conditions of all mice were monitored for 2 weeks.

In the next data set the test system is HepG2 tumors. The data set can be described thus: HepG2 tumor-bearing nude mouse model (CDX). It is filed as in vivo, nude mice. On the procedure: The in vivo antitumor effect of ZYZ384 was assessed using a HepG2 tumor‐bearing nude mouse model (cell‐derived xenograft, CDX; Figure 4D).
The tumor‐bearing nude mice model was established by direct injection of hepG2 cells into the left armpit of nude mice. Animals were subsequently divided into five groups (n = 7). All compounds were applied via intragastric administration, and sorafenib was used as the positive control. Other groups, except the control group, were treated with different concentrations of ZYZ384. Body weight and tumor volume were monitored and recorded throughout the treatment period.

Data set [3] deals with SMYD3. The data set can be described thus: SMYD3 expression in tumor tissue (Western blot). It is filed as in vivo, nude mice. To be noted: ZYZ384 treatment groups versus control group. The procedure: (§4) In order to explore the antitumor mechanism of ZYZ384, the inhibitory effect of ZYZ384 on SMYD3 was determined in tumor tissues. […] In parallel, the expression of H3K4me3 was also noted to decrease in a similar pattern to that of SMYD3 (Figure 5B). The tumor tissues from control and high‐dosage treatment group animals were isolated. Since SMYD3 can tri‐methylated H3K4, ChIP‐seq analysis was used. This method allowed for annotating H3K4me3 occupancy on genes (Figure 5C). Global H3K4me3 occupancy decreased near annotation genes' transcription start site (TSS; Figure 5D). H3K4me3 is often enriched at activated promoters near TSSs. When combined with Kyoto Encyclopedia of Genes and Genomes (KEGG) pathway enrichment analysis (Figure 5E) and Gene Ontology (GO) functional enrichment analysis (Figure 5F), attention focus on the AKT pathway, cell proliferation, and migration functions. Visualized reads and signal strength of H3K4me3 for the Rac1 gene at the promoter region decreased following treatment with ZYZ384 (Figure 5G). […]
(§5) Isolated protein (30 µg) was obtained from tissues, separated on a sodium dodecyl sulfate‐polyacrylamide gel electrophoresis (SDS‐PAGE) gel, and transferred to a polyvinylidene fluoride membrane. […] The immunoreactive protein is visualized by enhanced chemiluminescence, and the signal intensity was detected and quantified using ImageJ.
On the technique in general: A western blot detects proteins with antibodies after separation by electrophoresis.

The subject of another data set is H3K4me3. The data set can be described thus: H3K4me3 expression in tumor tissue (Western blot). In kind it is in vivo, nude mice. To be noted: ZYZ384 treatment groups versus control group. The procedure:
as §4, §5

Another data set can be described thus: Water solubility. It is filed as physicochemical. From the text: We were granted a Chinese patent (CN114246851A) to protect the structure and activity of ZYZ384, the effectiveness of ZYZ384 at high concentrations presents a challenge for future clinical use. […] Currently, we are trying to transform it into hydrochloride or culture cocrystallization to improve its solubility, bioavailability, and druggability. Drug resistance and combination therapy of ZYZ384 on other models will be gradually carried out in the follow‐up work. Although we developed a small molecule targeting SMYD3, we still need to figure out whether it is a selective inhibitor, and related research is to be continued.

Consider `COc1ccc(/N=C2/c3ccccc3/C(=N/c3ccc(OC)cc3)C2(C)C)cc1` [ZYZ384, (1Z,3Z)-N1,N3-bis(4-methoxyphenyl)-2,2-dimethyl-1H-indene-1,3(2H)-diimine], for which the Kd on SMYD3-GST tag protein is 78 µM. The “SMYD3 activity (alpha counts)” value at SMYD3 [1] was “inhibits SMYD3 in a concentration‐dependent manner”. In addition, the IC50 in the data set with A549 cells came out at 20.7 µM; in the data set with HCT116 cells, 15.2 µM; with HepG2 cells, 5.23 µM; in the data set with MDA-MB-231 cells, 7.28 µM; in the data set on Miapaca2 cells, 13.8 µM; in the data set on Huh7 cells, 5.45 µM. This compound gave a half-maximal inhibitory concentration (IC50) in the data set on LO2 cells (Homo sapiens, L02, LO2 normal liver cells, MTT, 24 h) of 26.7 µM. For the same compound, in the data set with LO2 cells (LO2), the “toxicity in normal liver cells” value is “low toxicity”. In addition, in the data set on SMYD3 [2], the SMYD3 overexpression result was “suppressed”. In the data set with C57BL/6 mice, the LD5 is > 2000 mg/kg. Further, the toxicity entry in the data set on C57BL/6 mice (2 g/kg one time, 2 weeks observation) is “No toxicity”. For the same compound, the survival rate with C57BL/6 mice (2 g/kg, after 2 weeks) was 100%. Further, the “body weight changes during treatment” value in the data set on HepG2 tumors (HepG2 tumor-bearing nude mice) is reported as “no noticeable body weight changes”. Moreover, the “growth suppression in HepG2 tumors” value in the data set on HepG2 tumors (nude mice, 100 mg/kg intragastric, versus sorafenib 100 mg/kg) is on record as “better than that of sorafenib”. The “SMYD3 expression in tumor tissues” value with SMYD3 [3] is listed as “significantly diminished”. Also, the “expression of H3K4me3 in tumor tissues” value with H3K4me3 was “decrease”. Moreover, the water solubility result in “Water solubility” is “poor water solubility”.

Usually IC50 stands for the concentration that gives 50% inhibition. A high value points to weaker potency in that assay.

(Values after paper PMC11401973, “A novel small molecule ZYZ384 targeting SMYD3 for hepatocellular carcinoma via reducing H3K4 trimethylation of the Rac1 promoter” (MedComm, 2024).)
